From US9586959B2, “Substituted tricyclic heterocycles as histamine 4 receptor inhibitors” (C&C RESEARCH LABORATORIES, priority 2011, dated 2017)
Converted amounts (≈) assume the structure as drawn. Read-outs that look alike come from different tables or passages of the source.

Legend:
[1] = Metabolic stability in mouse microsome; conditions: mouse microsome 1 mg/mL, 5 μM compound, 1 mM NADPH
[2] = Solubility in artificial gastrointestinal tract solution; type: physicochemical; conditions: for solubility at 1 h / solubility at 2 h: artificial gastrointestinal tract solution, thermodynamic from solid; for solubility at 1 h: fassgf or other biorelevant; for solubility at 2 h: fassif
Outline: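 Two media were used: pH 1.2 NaCl/HCl with Triton X-100, and pH 6.5 phosphate buffer with sodium taurocholate and lecithin. Heated sample solutions were filtered to remove undissolved compound, diluted 1:1 with CH3CN, and solubility was measured by liquid chromatography.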

[3] = Rat pharmacokinetics (oral); type: in vivo; conditions: SD rat, 2 mg/mL solution at 5 mL/kg
Procedure: (§1) The weight of each ICR mouse and SD rat was properly 20˜30 g and 200˜300 g, and dosage of the compound of the present invention was 10 mL/kg for mice and 5 mL/kg for rats, and administered orally using Zonde. Blood collection was performed at 0.25, 0.5, 1, 2, 4, 6, 8 and 24 hours by orbital venous blood collection using a capillary tube coated with an anticoagulant, and then plasma was isolated using a centrifuge and kept in a freezer.
(§2) Plasma collected from animals and standard concentration material were pretreated using solid-phase extraction, and concentration of the compound of the invention was determined using a liquid chromatography mass spectrometer (Agilent HPLC, API-3000).
(§3) According to the resulting concentration value, the pharmacokinetics parameter was found using WinNonlin (Version 6.2) and half-life (t1/2), maximum blood concentration (Cmax) and infinite area under the curve (AUCinf) are shown in Tables 6 and 7 below.

[4] = target: human serotonin 3 receptor (human 5-HT3 receptor) (Homo sapiens (Human), UniProt P46098); test: Binding affinity of human serotonin 3 receptor (performed at Cerep)
Procedure: The binding assays of the human serotonin 3 receptor for present invention were performed at Cerep (Poitiers, France), and the results of analysis are shown in Table 3.

[5] = target: human histamine 3 receptor (hH3R) (Homo sapiens (Human), UniProt Q9Y5N1); test: Binding affinity of human histamine 3 receptor (hH3R), [3H] labeled N-α-methylhistamine displacement; conditions: hH3R-overexpressed cell membrane, [3H] N-α-methylhistamine
Outline: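 Membranes from cells overexpressing hH3R (15 μg) were incubated with compound and [3H]N-α-methylhistamine (20 μM stock) in 50 mM Tris-HCl pH 7.4, 5 mM MgCl2 for 30 min at 27 °C. Bound radioligand was counted by scintillation after filtration; 200 μM (R)(−)-α-methylhistamine stock defined non-specific binding; IC50 derived.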

[6] = Mouse pharmacokinetics (oral); type: in vivo; conditions: ICR mouse, 5 mg/mL solution at 10 mL/kg; for Cmax / AUC(0-inf) / half-life: plasma, 50 mg/kg; for AUC(0-inf): read-out: Mouse pharmacokinetics AUCinf; for half-life: read-out: Mouse pharmacokinetics t1/2 (converted)
Procedure: as §1, §2, §3

[7] = tested on: histamine-induced mast cell migration (trachea); test: Histamine-induced mast cell migration; type: in vivo, Balb/c mice; conditions: 20 mg/kg oral, 0.1 M histamine aerosol, 2 days
Procedure: Female, Balb/c mice (7 weeks old, 20±3 g) were purchased from OrientBio Co., Ltd.
The animals were housed under conditions of controlled temperature (23±3° C.), humidity (50±5%) and lighting with food and water available ad libitum.
Mice were dosed with either vehicle (20% cyclodextrin in second distilled water) or the compound by orally administration. The Compound (20 mg/kg) dissolved in a vehicle and administered orally at a volume of 10 mL/kg. After 15 minutes, mice were challenged by a 20 min aerosol inhalation of PBS (phosphate buffered saline) or 0.1 M histamine (dissolving in PBS). This process was repeated for 2 days. After a final challenge, the tracheae were cleared of blood via perfusion of PBS and tracheae were extracted, the tracheae were fixed in 10% (w/v) formaldehyde for subsequent paraffin cross-sectioning and toluidine blue staining. Total mast cells were calculated, and a mean was reported. (The Journal of Pharmacology and Experimental Therapeutics, 2004, 309, 404-413). Statistical analysis was analyzed using one-way ANOVA with Dunnett test. Values of p<0.05 were considered statistically significant.

[8] = target: human histamine 4 receptor (hH4R) (Homo sapiens (Human), UniProt Q9H3N8); test: Binding affinity of human histamine 4 receptor (hH4R), [3H] labeled histamine displacement; conditions: hH4R-overexpressed cell membrane, [3H] histamine
Outline: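 Membranes of hH4R-overexpressing cells (25 μg) incubated with compound and [3H]histamine (diluted to 1 μM before addition) for 30 min at 27° C. Non-specific binding defined with histamine (100 μM before addition); bound radioligand collected by filtration on PEI-presoaked glass fibre, washed with 50 mM Tris-HCl pH 7.4, counted by scintillation (CPM).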

[9] = Metabolic stability in human microsome; conditions: human microsome 1 mg/mL, 5 μM compound, 1 mM NADPH
[10] = microsomes, 5 μM, pH 7.4
[11] = microsomes, 5 μM, pH 7.4; remark: listed apart in the source
[12] = tested on: histamine-induced itching, ICR mice; test: Histamine-induced itching model in ICR mice; type: in vivo; conditions: 50 mg/kg oral, histamine 300 nmol intradermal, 20 min count
Procedure: Female, ICR mice (8 weeks old) were purchased from OrientBio Co., Ltd. The animals were housed under conditions of controlled temperature (23±3° C.), humidity (50±5%) and lighting with food and water available ad libitum.
The hair was clipped using clippers (8000AD, THRIVE) over the rostral part of the back 24 hours before the experiment under anesthesia with isoflurane. Histamine (300 nmol) was dissolved in saline and a volume of 40 μL injected intradermally into the rostral part of the back. Mice were dosed with either vehicle (20% cyclodextrin in second distilled water) or the compound by orally administration. The Compound (50 mg/kg) dissolved in a vehicle (20% cyclodextrin in second distilled water) and administered orally at a volume of 10 mL/kg.
Mice (n=10 per group) were divided into 3 groups (normal group, control group and experimental group). The animals were randomized for similar body weight distribution. A vehicle or the compound was administered 20 minutes before injection of histamine or saline. Immediately after intradermal injection, the animals were returned to an acrylic cage (approximately 30×30×30 cm, access production) composed of four cells, to which they had been acclimated for at least 1 hour before the experiment, for observation of itch responses. A camera (Samsung, VLUUNV30) was positioned above the mice to record their response. Itch was measured by blinded counting of the number of scratching in the 20 min period immediately after the intradermal injection. A number of scratching was defined as 3 or more individual rapid scratch movements with the hind paws around the injection site (J. Allergy Clin. Immunol. 2007, 19(1), 176-183). All data were analyzed by using Excel and Prism, and all values are expressed as the mean±S.E.M. The inhibitory effect of compounds is shown as a percentage of the maximal response to histamine (100% control group).
Statistical analysis was analyzed using one-way ANOVA with Dunnett test. Values of p<0.05 were considered statistically significant.

[13] = tested on: oxazolone-induced atopic dermatitis, Balb/c mice; test: Oxazolone-induced atopic dermatitis model in Balb/c mice; type: in vivo; conditions: 100 mg/kg, BID, oral, days 8-28
Procedure: Female, Balb/c mice (6 weeks old, 20±3 g) were purchased from OrientBio Co., Ltd. The animals were housed under conditions of controlled temperature (23±3° C.), humidity (50±5%) and lighting with food and water available ad libitum.
On the beginning day (day 1), mice were sensitized by the topical application of 50 μL of 1% oxazolone in acetone and olive oil (4:1 ratio) on the abdominal skin. On day 8, 10, 12, 15, 17, 19, 22, 24 and 26, 25 μL of 0.2% oxazolone was applied topically on the inner side of right ear of each mouse. Between days 8 and 28, the compound of the invention was administered orally (10 mL/kg) twice a day in the morning and afternoon, and on days 12, 19 and 27, the thickness of the right ear of the mouse was measured. On day 28, the ear tissue of the mouse was extracted, fixed in 10% formalin solution, and then a tissue slide was prepared, stained with H&E (hematoxylin & eosin), and then the thickness of the ear was observed (Journal of Investigative Dermatology, 2008, 128, 79-86). Statistical analysis was analyzed using one-way ANOVA with Dunnett test. Values of p<0.05 were considered statistically significant.

[14] = first solution pH 1.2, 2 mg/mL sample, 37° C. 1 hour
[15] = second solution pH 6.5, 2 mg/mL sample, 37° C. 2 hours

Sequence of human histamine 3 receptor (hH3R) (Q9Y5N1 whole entry): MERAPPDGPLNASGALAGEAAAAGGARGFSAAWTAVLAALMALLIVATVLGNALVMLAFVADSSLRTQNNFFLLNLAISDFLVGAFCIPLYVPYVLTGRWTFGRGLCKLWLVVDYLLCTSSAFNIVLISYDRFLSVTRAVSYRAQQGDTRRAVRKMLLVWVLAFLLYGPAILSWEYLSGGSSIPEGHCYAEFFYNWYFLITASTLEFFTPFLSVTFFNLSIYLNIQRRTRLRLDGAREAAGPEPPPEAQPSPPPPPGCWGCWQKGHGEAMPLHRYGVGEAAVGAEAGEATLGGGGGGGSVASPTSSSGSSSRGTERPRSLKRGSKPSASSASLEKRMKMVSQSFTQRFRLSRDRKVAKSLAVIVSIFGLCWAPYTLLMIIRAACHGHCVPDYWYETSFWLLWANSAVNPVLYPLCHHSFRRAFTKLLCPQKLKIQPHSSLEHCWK
Sequence of human histamine 4 receptor (hH4R) (Q9H3N8 whole entry): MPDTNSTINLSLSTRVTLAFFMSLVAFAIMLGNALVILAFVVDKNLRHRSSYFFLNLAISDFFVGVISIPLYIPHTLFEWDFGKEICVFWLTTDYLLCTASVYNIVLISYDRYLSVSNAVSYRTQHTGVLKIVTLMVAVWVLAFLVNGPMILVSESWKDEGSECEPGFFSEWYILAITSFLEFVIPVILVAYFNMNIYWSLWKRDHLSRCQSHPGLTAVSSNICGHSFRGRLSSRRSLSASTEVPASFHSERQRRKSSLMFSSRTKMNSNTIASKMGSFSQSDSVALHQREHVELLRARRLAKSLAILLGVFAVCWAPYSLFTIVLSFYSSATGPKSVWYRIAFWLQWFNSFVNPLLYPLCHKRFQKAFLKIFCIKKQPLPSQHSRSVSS
Sequence of human serotonin 3 receptor (human 5-HT3 receptor) (P46098 24-478): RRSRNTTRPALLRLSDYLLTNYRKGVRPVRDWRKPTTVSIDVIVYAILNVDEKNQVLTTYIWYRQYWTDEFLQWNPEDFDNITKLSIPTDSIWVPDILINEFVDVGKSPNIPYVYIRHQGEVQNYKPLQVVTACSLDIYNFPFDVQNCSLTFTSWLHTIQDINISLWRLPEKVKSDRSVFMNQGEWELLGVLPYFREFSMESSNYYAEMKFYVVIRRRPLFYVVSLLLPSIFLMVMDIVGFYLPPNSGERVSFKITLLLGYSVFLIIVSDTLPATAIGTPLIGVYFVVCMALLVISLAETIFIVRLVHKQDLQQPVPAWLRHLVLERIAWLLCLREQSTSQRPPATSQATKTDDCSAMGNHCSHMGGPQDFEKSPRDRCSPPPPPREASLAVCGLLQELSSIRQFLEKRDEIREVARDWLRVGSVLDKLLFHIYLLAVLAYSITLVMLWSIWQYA

Row | Compound | Metabolic stability (CLh. int), Mouse [1] | solubility at 1 h [2, 14] | solubility at 2 h [2, 15] | IC50 [5] | Cmax [6] | AUC(0-inf) [6] | half-life [6] | Mast cell migration (% change from control group) [7] | IC50 [8] | Metabolic stability (CLh. int), Human [9] | also measured
1 | CNC1CN(c2nc3ncc(C#N)cc3n3cnnc23)C1 [Compound 25, 4-(3-(Methylamino)azetidin-1-yl)pyrido[2,3-e][1,2,4]triazolo[4,3-a]pyrazin-8-carbonitrile] | 4590 µL/min/mg | 1930 µg/mL (≈ 6.87 mM) | 1380 µg/mL (≈ 4.94 mM) | > 100000 nM | 9760 ng/mL | 14000 ng·h/mL | 1.17 h | 48.4^1% | 100 nM | 4160 µL/min/mg | Cmax ([3]; plasma, 10 mg/kg): 970 ng/mL; AUC(0-inf) ([3]; plasma, 10 mg/kg, read-out: Rat pharmacokinetics AUCinf): 2920 ng·h/mL; half-life ([3]; plasma, 10 mg/kg, read-out: Rat pharmacokinetics t1/2 (converted)): 2.21 h; inhibition at 10 µM ([4]; read-out: % inhibition degree at 10 μM, human serotonin 3 receptor (h5-HT3R)): 0%; IC50 ([4]; read-out: Binding affinity (IC50) of human serotonin 3 receptor (h5-HT3R)): > 10000 nM
2 | Clc1cnc2nc(N3CCN4CCCC4C3)c3nncn3c2c1 (centres unmarked) [Compound 29, 8-Chloro-4-(hexahydropyrrolo[1,2-a]pyrazin-2(1H)-yl)pyrido[2,3-e][1,2,4]triazolo[4,3-a]pyrazine] |  | 1560 µg/mL (≈ 4.73 mM) | 1990 µg/mL (≈ 6.04 mM) |  |  |  |  |  | 49 nM |  | Metabolic stability (CLh. int), Human [10]: 3950 µL/min/mg; Metabolic stability (CLh. int), Mouse [11]: 12070 µL/min/mg
3 | Cc1nc2c3cc(Cl)cnc3nc(N3CCN(C)CC3)n2n1 [Compound 31, 9-Chloro-2-methyl-5-(4-methylpiperazin-1-yl)pyrido[3,2-e][1,2,4]triazolo[1,5-c]pyrimidine] | 28630 µL/min/mg | 2010 µg/mL (≈ 6.33 mM) | 1980 µg/mL (≈ 6.23 mM) | > 100000 nM | 11700 ng/mL | 22400 ng·h/mL | 1.79 h |  | 16 nM | 5190 µL/min/mg | Number of scratching (% changes from control group) [12]: 89.3^1%
4 | CN1CCN(c2nc3ccc(Cl)cc3n3cnnc23)CC1 [reference compound] | 111630 µL/min/mg |  |  | 9000 nM |  |  |  | 23.1^1% | 22 nM | 10990 µL/min/mg | Solubility, First solution (pH = 1.2) [2, 14]: 1708.3 μg/mL; Solubility, Second solution (pH = 6.5) [2, 15]: 320.1 μg/mL; Rat pharmacokinetics AUCinf [3]: 1060 ng·h/mL; Rat pharmacokinetics Cmax [3]: 490 ng/mL; Rat pharmacokinetics t1/2 [3]: 1.09 h; Ear epidermis thickness (% change from control group) [13]: 8.0%; Mouse pharmacokinetics AUCinf [6]: 6650 ng·h/mL; Mouse pharmacokinetics Cmax [6]: 3840 ng/mL; Mouse pharmacokinetics t1/2 [6]: 3.49 h
